Laboratory results: patent publication US9394264B2 (Receptos, Inc., priority 2009, dated 2016)
Where a name gives a salt, the structure may show the parent alone.

biological target: S1P1/EDG1 (Homo sapiens, UniProt P21453); assay: S1P1 CRE-bla CHOK1 reporter assay (inhibition of Forskolin induced cAMP); format: cell-based; details: agonist activity range, S1P1 CRE-bla CHOK1 cells, 2 μM Forskolin; read-out: S1P1 ACTIVITY
Source text: A mammalian expression plasmid containing S1P1/EDG1 cloned into pcDNA3.1 was purchased from Missouri S&T cDNA Resource Centre. The nucleotide and amino acid sequence of human S1P1/EDG1 are published in Hla and Maciag (J Biol Chem, 265(1990), 9308-9313). S1P1/pcDNA3.1 was transfected into the CRE-bla CHO K1 (Invitrogen) cell line, and stable single cell clones were selected using standard techniques. Expression of functional S1P1/EDG1 receptor was confirmed by cell surface FACS with a S1P1 antibody (R&D Systems, clone 218713) and S1P-mediated inhibition of Forskolin induced cAMP.
Cells were seeded into 384-well black wall/clear bottom plates at 10^4 cells/well/19.5 μl assay media (DMEM-phenol free, 0.5% charcoal/dextran stripped serum, 2 mM glutamine, 0.1 mM NEAA, 1 mM Na-Pyruvate, 25 mM Hepes) and incubated for 18 hrs at 37° C. in 5% CO2. Dose response curves (10-point) were generated in 10 mM Hepes, 0.1% Pluronic F127, in the presence of Forskolin. Cells were treated with 0.5 μl compound in the presence of 2 μM Forskolin for 4 hrs at 37° C. The FRET-based β-lactamase fluorescent substrate (LiveBLAzer™-FRET B/G Loading Kit CC4-AM; Invitrogen) was prepared according to manufacturer's directions, and incubated with cells for 2 hrs at room temperature. Plates were read at Ex:410/Em:458 and Ex:410/Em:522, and the response ratio determined. Data was analyzed by non-linear regression to determine the EC50 for inhibition of Forskolin induced cAMP.

Sequence of S1P1/EDG1 (P21453 whole entry): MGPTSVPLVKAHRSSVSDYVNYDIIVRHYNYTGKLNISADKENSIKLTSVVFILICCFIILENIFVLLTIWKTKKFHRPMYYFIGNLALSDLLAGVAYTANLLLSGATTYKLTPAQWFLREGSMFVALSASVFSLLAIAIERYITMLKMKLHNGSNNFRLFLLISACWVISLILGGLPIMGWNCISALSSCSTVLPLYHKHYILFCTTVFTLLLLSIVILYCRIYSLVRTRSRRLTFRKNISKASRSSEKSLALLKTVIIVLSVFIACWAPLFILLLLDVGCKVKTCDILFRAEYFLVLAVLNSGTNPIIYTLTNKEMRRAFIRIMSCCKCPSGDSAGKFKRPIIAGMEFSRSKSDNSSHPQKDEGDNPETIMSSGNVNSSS

SMILES	EC50
CC(C)Oc1ccc(-c2nc(-c3cccc4c3CCC[C@H]4NCCO)no2)cc1C#N [Compound 50, (R)-5-(3-(5-((2-hydroxyethyl)amino)-5,6,7,8-tetrahydronaphthalen-1-yl)-1,2,4-oxadiazol-5-yl)-2-isopropoxybenzonitrile]	50 to 500 pM
CC(C)Oc1ccc(-c2nc(-c3cccc4c3CCC[C@H]4NS(=O)(=O)CCN(C)C)no2)cc1C#N [Compound 44, (R)-N-(5-(5-(3-cyano-4-isopropoxyphenyl)-1,2,4-oxadiazol-3-yl)-1,2,3,4-tetrahydronaphthalen-1-yl)-2-(dimethylamino)ethanesulfonamide]	50 to 500 pM
CC(C)Oc1ccc(-c2nc(-c3ccc4[nH]ccc4c3)no2)cc1C#N [Compound 68, 5-(3-(1H-indol-5-yl)-1,2,4-oxadiazol-5-yl)-2-isopropoxybenzonitrile]	500 to 5000 pM
CCOc1ccc(Cc2nc(-c3cccc4c3CCC4NCCS(=O)(=O)NC)no2)cc1OCC (centres unmarked) [Compound 64, 2-((4-(5-(3,4-diethoxybenzyl)-1,2,4-oxadiazol-3-yl)-2,3-dihydro-1H-inden-1-yl)amino)-N-methylethanesulfonamide]	> 5000 pM
CC(C)Oc1ccc(-c2nc(-c3cccc4c3CCC[C@H]4NC(=O)CN(C)C)no2)cc1C#N [Compound 25]	500 to 5000 pM
CC(C)Oc1ccc(-c2nc(-c3cccc4c3CCC[C@@H]4NC(=O)N3CC[C@H](O)C3)no2)cc1C#N [Compound 14]	50 to 500 pM
OCCN[C@@H]1CCc2c(-c3noc(-c4cc(-c5ccccc5)c(C(F)(F)F)s4)n3)cccc21 [Compound 67, (R)-2-(4-(5-(4-phenyl-5-(trifluoromethyl)thiophen-2-yl)-1,2,4-oxadiazol-3-yl)-2,3-dihydro-1H-inden-1-ylamino)ethanol]	> 5000 pM
CC(C)Oc1ccc(-c2nc(-c3cccc4c3CCC[C@@H]4NS(=O)(=O)C3CC3)no2)cc1C#N [Compound 31]	500 to 5000 pM
CC(C)Oc1ccc(-c2nc(-c3cccc4c3CCC[C@H]4NC(=O)N3CCCC3)no2)cc1C#N [Compound 11]	50 to 500 pM
CC(C)Oc1ccc(-c2ncc(-c3cccc4c3CCC4N[C@H](C)CO)o2)cc1C#N (stereo partly drawn) [Compound 58, 5-(5-(1-((R)-1-hydroxypropan-2-ylamino)-2,3-dihydro-1H-inden-4-yl)oxazol-2-yl)-2-isopropoxybenzonitrile]	> 5000 pM
CC(C)Oc1ccc(-c2nc(-c3cccc4c3CCC[C@@H]4NS(=O)(=O)CC(=O)N(C)C)no2)cc1C#N [Compound 41, (S)-2-(N-(5-(5-(3-cyano-4-isopropoxyphenyl)-1,2,4-oxadiazol-3-yl)-1,2,3,4-tetrahydronaphthalen-1-yl)sulfamoyl)-N,N-dimethylacetamide]	< 50 pM
CC(C)Oc1ccc(-c2nc(-c3cccc4c3CCC[C@H]4NC(=O)N3CCC[C@H](O)C3)no2)cc1C#N [Compound 18]	500 to 5000 pM
COCC(=O)N[C@@H]1CCCc2c(-c3noc(-c4ccc(OC(C)C)c(C#N)c4)n3)cccc21 [Compound 23]	500 to 5000 pM
CC(C)Oc1ccc(-c2nc(-c3cccc4c3CCC[C@H]4NS(N)(=O)=O)no2)cc1C#N [Compound 26, (R)-N-(5-(5-(3-cyano-4-isopropoxyphenyl)-1,2,4-oxadiazol-3-yl)-1,2,3,4-tetrahydronaphthalen-1-yl)sulfamide]	50 to 500 pM
CC(C)Oc1ccc(-c2nc(-c3cccc4c3CCC[C@H]4NC(=O)N3CC(C(=O)O)C3)no2)cc1C#N [Compound 10]	50 to 500 pM
CC(C)Oc1ccc(-c2nc(-c3cccc4c3CCC[C@H]4NC(=O)N3CC[C@@H](N(C)C)C3)no2)cc1C#N [Compound 20, (R)-N-((R)-5-(5-(3-cyano-4-isopropoxyphenyl)-1,2,4-oxadiazol-3-yl)-1,2,3,4-tetrahydronaphthalen-1-yl)-3-(dimethylamino)pyrrolidine-1-carboxamide]	500 to 5000 pM
CC(C)Oc1ccc(-c2nc(-c3cccc4c3CCC[C@H]4NCC(=O)O)no2)cc1C#N [Compound 52, (R)-2-((5-(5-(3-cyano-4-isopropoxyphenyl)-1,2,4-oxadiazol-3-yl)-1,2,3,4-tetrahydronaphthalen-1-yl)amino) acetic acid]	< 50 pM
Cc1cnccc1-c1noc(-c2ccc(OC(C)C)c(C#N)c2)n1 [Compound 70, 2-isopropoxy-5-(3-(3-methylpyridin-4-yl)-1,2,4-oxadiazol-5-yl)benzonitrile]	< 50 pM
CC(C)Oc1ccc(-c2nc(-c3cccc4c3CCC[C@@H]4NC(=O)N3CCCC3)no2)cc1C#N [Compound 12, (S)-N-(5-(5-(3-cyano-4-isopropoxyphenyl)-1,2,4-oxadiazol-3-yl)-1,2,3,4-tetrahydronaphthalen-1-yl)pyrrolidine-1-carboxamide]	50 to 500 pM

SMILES	EC50
CC(C)Oc1ccc(-c2nc(-c3cccc4c3CCC[C@@H]4NC(=O)N(C)C)no2)cc1C#N [Compound 6]	50 to 500 pM
COCC(=O)N[C@H]1CCCc2c(-c3noc(-c4ccc(OC(C)C)c(C#N)c4)n3)cccc21 [Compound 24]	50 to 500 pM
CC(C)Oc1ccc(-c2nc(-c3cccc4c3CCC[C@H]4NS(=O)(=O)CC(=O)N(C)C)no2)cc1C#N [Compound 40, (R)-2-(N-(5-(5-(3-cyano-4-isopropoxyphenyl)-1,2,4-oxadiazol-3-yl)-1,2,3,4-tetrahydronaphthalen-1-yl)sulfamoyl)-N,N-dimethylacetamide]	< 50 pM
CC(C)Oc1ccc(-c2nc(-c3cccc4c3CCC[C@@H]4NS(=O)(=O)CC(N)=O)no2)cc1C#N [Compound 38]	< 50 pM
CC(C)Oc1ccc(-c2nc(-c3cccc4c3CCC[C@H]4NC(=O)N(C)C)no2)cc1C#N [Compound 5]	50 to 500 pM
CC(C)Oc1ccc(-c2nc(-c3ccc4occc4c3)no2)cc1C#N [Compound 69, 5-(3-(benzofuran-5-yl)-1,2,4-oxadiazol-5-yl)-2-isopropoxybenzonitrile]	500 to 5000 pM
CC(C)Oc1ccc(-c2nc(-c3cccc4c3CCC[C@@H]4N)no2)cc1C#N [Compound 4, (S)-5-(3-(5-amino-5,6,7,8-tetrahydronaphthalen-1-yl)-1,2,4-oxadiazol-5-yl)-2-isopropoxybenzonitrile]	50 to 500 pM
CC(C)Oc1ccc(-c2nc(-c3cccc4c3CCC[C@H]4O)no2)cc1C#N [Compound 1, (R)-5-(3-(5-hydroxy-5,6,7,8-tetrahydronaphthalen-1-yl)-1,2,4-oxadiazol-5-yl)-2-isopropoxybenzonitrile]	50 to 500 pM
CCOc1ccc(Cc2nc(-c3cccc4c3CCC4NCCS(C)(=O)=O)no2)cc1OCC (centres unmarked) [Compound 63, 4-(5-(3,4-diethoxybenzyl)-1,2,4-oxadiazol-3-yl)-N-(2-(methylsulfonyl)ethyl)-2,3-dihydro-1H-inden-1-amine]	> 5000 pM
CC(C)Oc1ccc(-c2nc(-c3ccnc(CO)c3)no2)cc1C#N [Compound 71, 5-(3-(2-(hydroxymethyl)pyridin-4-yl)-1,2,4-oxadiazol-5-yl)-2-isopropoxy-benzonitrile]	50 to 500 pM
CC(C)Oc1ccc(-c2nc(-c3cccc4c3CCC[C@@H]4O)no2)cc1C#N [Compound 2, (S)-5-(3-(5-hydroxy-5,6,7,8-tetrahydronaphthalen-1-yl)-1,2,4-oxadiazol-5-yl)-2-isopropoxybenzonitrile]	< 50 pM
CC(C)Oc1ccc(-c2nc(-c3cccc4c3CCC[C@@H]4NCC(=O)N3CCCC3)no2)cc1C#N [Compound 55, (S)-2-isopropoxy-5-(3-(5-((2-oxo-2-(pyrrolidin-1-yl)ethyl)amino)-5,6,7,8-tetrahydronaphthalen-1-yl)-1,2,4-oxadiazol-5-yl)benzonitrile]	50 to 500 pM
CC(C)Oc1ccc(-c2nc(-c3cccc4c3CCC[C@H]4NC(=O)N3CCOCC3)no2)cc1C#N [Compound 16]	500 to 5000 pM
CC(C)Oc1ccc(-c2nc(-c3cccc4c3CCC[C@H]4NS(=O)(=O)CC(N)=O)no2)cc1C#N [Compound 39]	< 50 pM
CC(C)Oc1ccc(-c2nc(-c3cccc4c3CCC[C@@H]4NCC(=O)O)no2)cc1C#N [Compound 53, (S)-2-((5-(5-(3-cyano-4-isopropoxyphenyl)-1,2,4-oxadiazol-3-yl)-1,2,3,4-tetrahydronaphthalen-1-yl)amino)acetic acid]	50 to 500 pM
CC(C)Oc1ccc(-c2nc(-c3cccc4c3CCC[C@@H]4NC(=O)N3CCOCC3)no2)cc1C#N [Compound 15, (S)-N-(5-(5-(3-cyano-4-isopropoxyphenyl)-1,2,4-oxadiazol-3-yl)-1,2,3,4-tetrahydronaphthalen-1-yl)morpholine-4-carboxamide]	50 to 500 pM
CC(C)Oc1ccc(-c2nc(-c3cccc4c3CCC[C@@H]4NS(=O)(=O)CC(=O)N3CCC3)no2)cc1C#N [Compound 42]	< 50 pM
CCOc1ccc(Cc2nc(-c3cccc4c3CC[C@H]4N)no2)cc1OCC [Compound 65, (R)-4-(5-(3,4-diethoxybenzyl)-1,2,4-oxadiazol-3-yl)-2,3-dihydro-1H-inden-1-amine hydrochloride]	> 5000 pM
CCOc1ccc(Cc2nc(-c3cccc4c3CC[C@@H]4NCC(=O)N(C)C)no2)cc1OCC [Compound 66, (S)-2-((4-(5-(3,4-diethoxybenzyl)-1,2,4-oxadiazol-3-yl)-2,3-dihydro-1H-inden-1-yl)amino)-N,N-dimethylacetamide]	> 5000 pM
